Tests used:
[1] = system: E.G7-OVA (OVA-expressing EL4 lymphoma) tumors; experiment: Tumor challenge: OVA vaccine with adjuvant in E.G7-OVA tumor bearing mice; format: in vivo, C57BL/6 mice; conditions: Days 7, 14; for tumor growth suppression compared with the control group (PBS): 100 μg OVA with or without 50 μg adjuvant
Protocol: Female C57BL/6 mice 6-8 weeks of age obtained from NLAC Taiwan. Mice were injected s.c. with 200 μL of 1.5*10^6 E. G7-OVA (OVA-expressing EL4 lymphoma) cells in PBS. Tumor volumes were measured at regular intervals using a caliper and calculated by the following formula: tumor volume (mm^3)=(long diameter)*(short diameter)^2*0.52. When the average tumor volume reached […] (day 7), 100 μL of 100 μg OVA in PBS with or without 50 μg compound 56, alum, Qs-21 and GPI0100 was injected s.c. around the tumor. PBS (200 μL) was used as a control.
A mouse-vaccination model was applied with an antigen OVA to evaluate anti-tumor efficacy. […] The evaluation of compound 56, and positive control groups (alum, Qs-21 and GPI-0100) anti-tumor efficacy were analyzed by caliper.

PR8 virus = experiment: Influenza challenge: NP peptide vaccine with compound 56, then live PR8 virus infection; format: in vivo, C57BL/6 mice; conditions: NPI/II plus compound 56 (50 μg s.c. or 30 μg i.n.); two vaccinations; 110 PFU PR8
Protocol: Female C57BL/6 mice 6-8 weeks of age were immunized through either s.c. injection with 100p of vaccines or the intranasal route with 30 μl of vaccines. All vaccine liquids were freshly prepared and diluted with 0.5% Tween 20 PBS. Vaccines used for the subcutaneous injection contained immunogens NP366-374/NP311-325 peptides, alone or combined with compound 56 ([…]). Vaccines used for the i.n. route contained immunogens alone or with compound 56 (30 μg). After two times vaccination, mice were infected with 110 plaque-forming units (PFU) of live PR8 virus by intronasal.
A mouse-vaccination model was applied with an antigen […] to evaluate anti-influenza efficacy. Five mice per group were immunized two times with compound 56 and NPI/II. After two times vaccination, mice were infected with 110 plaque-forming units (PFU) of live PR8 virus by intronasal.

[2] = system: memory T cells (low CD62L, high CD44); experiment: Flow cytometric analysis of memory T cells (CD62L low, CD44 high) in splenocytes of vaccinated mice; format: in vivo, C57BL/6 mice; conditions: one week post-third dose
Protocol: C57BL/6 mice were obtained from NLAC Taiwan. Mice between 4 and 8 weeks of age were vaccinated with 100 μL via the subcutaneous (SC) route and one dose per week for three weeks. Mice was sacrificed one week after the third vaccination, serum and splenocytes were harvested.
Spleen tissue was isolated from mice and processed into single cell suspensions using PP micro centrifuge sample pestle. Splenocytes were seeding on 6 well plate at 2×10^7/2 mL, cultivation for 2 h in a CO2 incubator. After 2 h, stimulate with or without E7-peptide for 2 hours at 37° C., then treat cell with protein transport inhibitor Monensin (Invitrogen, Cat. no. 00-4505-51) and Brefeldin (Invitrogen, Cat. no. 00-4506-51) for 4 hours at 37° C. Afterward, cells were harvest then washed twice with PBS and then stained for surface CD3 (BioLegend, Cat. no. 100222), CD4 (BioLegend, Cat. no. 100540), CD8 (Invitrogen, Cat. no. 11-0081-86), CD44 (BioLegend, Cat. no. 103008), CD62L (BioLegend, Cat. no. 104412) for 30 minutes at 4° C. After washing, cells were fixed for 30 minutes at room temperature using IC fixation buffer (Invitrogen, Cat. no. 00-8222-49), then cells were washed in permeabilization buffer (Invitrogen, Cat. no. 00-8333-56) and stained with IFNγ antibody (Invitrogen, Cat. no. 48-7311-82), IL-2 antibody (Invitrogen, Cat. no. 25-7021-82) and TNFα antibody (Invitrogen, Cat. no. 48-7321-82). One point five million cells events were acquired on the Backman Coulter Gallions. Flow data were analyzed using Kaluza software (ver. 1.2). Populations were first gated on viable mononuclear cell using forward and side scatter, then gated on CD3^+/CD4^+ or CD3^+/CD8^+ T cells. Next, sub-gated CD62L^−/CD44^+ memory T cells. Subsequently, sub-gated on either CD4^+/IFNγ, CD8^+/IFNγ^+, CD4^+/IL-2^+, CD8^+/IL-2^+, CD4/TNFα^+ and CD8^+/TNFα^+ double-positive cells.
Two adhesion molecules associated with differentiating naive and activated/memory T cells are CD62L (L-selectin) and CD44 (H-CAM). […] Flow-cytometric analysis (individual mice) of T-cells as frequency of viable CD8^+ or CD4^+ splenocytes expressing IFN-γ, TNF-α, or IL-2. Cytokine positivity was determined.

[3] = system: PEK antigen (PE-E7-K3)-specific cytokine-secreting splenocytes; experiment: ELISpot of IFNγ and IL-2 production by splenocytes of mice vaccinated with PEK antigen plus saponin adjuvant; format: in vivo, C57BL/6 mice; conditions: 50 μg saponin + PEK 100 μg, s.c.; splenocytes one week after third dose
SARS-CoV-2 spike protein = experiment: ELISA of serum SARS-CoV-2-specific IgG after vaccination with spike protein and adjuvant; format: in vivo, C57BL/6 mice
Female BALB/c mice = experiment: Acute toxicity with increased dose of saponin (survival, weight change, spleen and hepato somatic index); format: in vivo
Description: FIG. 8 (A) The percentage of median weight change of mice in 5 days. The values are presented as means±S.E.M. (n=5). (B) Hepato somatic index and (C) Spleen somatic index. The values are presented as means±S.E.M. (n=5). The percentage of median weight change of mice which was received increased dose of saponin adjuvant 56 was all less than 5%. The spleen somatic index and hepato somatic index in all experimental group were no change with compare to control group.
Acute toxicity was examined with increased dose of saponin 56 form 100 μg to 1000 μg. The result was presented as the number of surviving animal per group of 5 mice (Female BALB/c mice, 9 weeks) in 7 days. […] (FIG. 8)
The results represent in FIG. 8. […] The spleen somatic index and hepato somatic index in all experimental group were no change with compare to control group.

Compound | tumor growth suppression compared with the control group (PBS) [1] | cytokine positive CD4+ T-cells [2] | frequency of CD8+ T-cells positive for IFN-γ or TNF-α as compared to mice vaccinated with GPI-0100 [2] | inducing IL-2 (ELISpot) [3] | secretion of cytokines IFNγ (ELISpot) compared with GPI0100 [3] | other results
Alum [reference compound] | slight tumor growth suppression at first | – | – | – | – | –
OVA: antigen OVA used in the tumor vaccination model | slight tumor growth suppression at first | – | – | – | – | –
Qs-21 [reference compound] | significant tumor growth suppression effect | – | – | – | – | –
CC1O[C@@H](OC(=O)[C@]23CCC(C)(C)CC2C2=CCC4C5(C)CC[C@H](O[C@@H]6OC(C(=O)NCCCCCCCCc7ccc(Oc8ccccc8)cc7)[C@@H](O)C(O)C6O)C(C)(C=O)C5CCC4(C)C2(C)CC3O)C(O[C@@H]2OC(C)[C@H](O[C@@H]3OC[C@@H](O)C(O)C3O)C(O)C2O)C(O)[C@H]1O (stereo partly drawn) [Compound 56, 3-O—(N-(8-(4-Phenoxyhenyl)octyl)-β-D-glucopyranosyluronamide)-28-O-(β-D-xylopyranosyl-(1→4)-α-L-rhamnopyranosyl-(1→2)-β-D-fucopyranosyl) quillaic ester] | significant tumor growth suppression effect | no cytokine positive CD4^+ T-cells were detected | higher frequency | moderate | three to four times more | survival rate of tumor bearing mice ([1]; 100 μg OVA + 50 μg adjuvant): highest survival rate; survival rate following PR8 infection compared to NP I/II peptides alone (PR8 virus): higher survival rate; increase of antibody titer (SARS-CoV-2 spike protein; SARS-CoV-2 (2 μg) + Compound 56 (50 μg) vs SARS-CoV-2 (10 μg) + Alum (10 μg), only 20% of antigen): 1000 fold; level of SARS-CoV-2-specific IgG antibody production (SARS-CoV-2 spike protein; SARS-CoV-2 (2 μg) + Compound 56 (50 μg), s.c.): highest level of antibody production; abnormality on activity and diet behavior (Female BALB/c mice; 100 μg to 1000 μg, 7 days): no obvious abnormality; survival in acute toxicity test (Female BALB/c mice; 100 μg to 1000 μg, 7 days): all of the mice were survive; number of surviving animal per group of 5 mice (Female BALB/c mice; Dose 100 μg, 7 days): 5/5; number of surviving animal per group of 5 mice (Female BALB/c mice; Dose 200 μg, 7 days): 5/5; number of surviving animal per group of 5 mice (Female BALB/c mice; Dose 500 μg, 7 days): 5/5; number of surviving animal per group of 5 mice (Female BALB/c mice; Dose 1000 μg, 7 days): 5/5; hepato somatic index compared to control group (Female BALB/c mice; all experimental groups, n=5): no change; spleen somatic index compared to control group (Female BALB/c mice; all experimental groups, n=5): no change; percentage of median weight change of mice (Female BALB/c mice; increased dose of saponin adjuvant, 5 days, n=5): less than 5%
CC1O[C@@H](OC(=O)[C@]23CCC(C)(C)CC2C2=CCC4C5(C)CC[C@H](O[C@@H]6OC(C(=O)NCCCCCCCCc7ccc(N8CCOCC8)cc7)[C@@H](O)C(O)C6O)C(C)(C=O)C5CCC4(C)[C@]2(C)CC3O)C(O[C@@H]2OC(C)[C@H](O[C@@H]3OC[C@@H](O)C(O)C3O)C(O)C2O)C(O)[C@H]1O (stereo partly drawn) [Compound 62, 3-O—(N-(8-(4-morpholinophen-1-yl)octyl)-β-D-glucopyranosyluronamide)-28-O-(β-D-xylopyranosyl-(1→4)-α-L-rhamnopyranosyl-(1-2)-β-D-fucopyranosyl) quillaic ester] | – | no cytokine positive CD4^+ T-cells were detected | higher frequency | – | – | –
CC1O[C@@H](OC(=O)[C@]23CCC(C)(C)CC2C2=CCC4C5(C)CC[C@H](O[C@@H]6OC(C(=O)NCCCCCCCCc7ccc(Oc8ccccc8)cc7)[C@@H](O)C(O)C6O)C(C)(C=O)C5CCC4(C)[C@]2(C)CC3O)C(O[C@@H]2OC(C)[C@H](O[C@@H]3OC[C@@H](O)C(O)C3O)C(O[C@@H]3OC(CO)[C@@H](O)C(O)C3O)C2O)C(O)[C@H]1O (stereo partly drawn) [Compound 79, 3-O—(N-(8-(4-Phenoxyhenyl)octyl)-β-D-glucopyranosyluronamide)-28-O-(β-D-glucopyranosyl-(1→3)-(β-D-xylopyranosyl-(1-4))-α-L-rhamnopyranosyl-(1→2)-β-D-fucopyranosyl) quillaic ester] | – | no cytokine positive CD4^+ T-cells were detected | higher frequency | moderate | three to four times more | –
